Data set [1] relates to HIV/SARS-CoV S pseudovirus. Nature of the data set: organism not typed. As to conditions: HepG2.
Data set [2] concerns wtSARS-CoV strain PUMC01 F5. The format is cell-based, SARS-CoV.
A short description of a further data set: in vitro. As to conditions: human.
Data set [3] concerns HIV/SARS-CoV S pseudovirus.
For a further data set, the system named is TfR. The format is cell-based.
For another data set, the system named is ACE2. The format is cell-based, human.
The next data set relates to CD59. It is filed as cell-based.

Read-outs that look alike come from different tables or passages of the source.

As a reminder, the IC50 is the midpoint of a concentration-inhibition curve. A higher IC50 goes with weaker potency in that assay.

Regarding `O=C(O)C=Cc1ccccc1O` [2-Hydroxycinnamic acid], inhibition in data set [1] was half-maximal at 0.3 ± 0.013 mM (IC50). For the same compound, in data set [2], the “Anti-SARS-CoV activity in wtSARS-CoV infection” value (from here on “Anti-SARS-CoV activity”) is given as “did not show any anti-SARS-CoV activities”. The compound further showed a CC50 in the data set “in vitro” of 2.5 ± 0.122 mM.

Consider `OCCc1ccccc1` [2-Phenylethanol (phenethy alcohol), 2-Phenylethanol], for which it took 4.1 ± 0.199 mM to reach half-maximal inhibition in data set [1] (IC50). Also, the “Anti-SARS-CoV activity” value in data set [2] is recorded as “did not show any anti-SARS-CoV activities”. Further, the CC50 in the data set “in vitro” amounted to 24.5 ± 1.53 mM.

On to `CC(=O)c1ccccc1O` [2′-Hydroxyacetophenone], for which, in data set [1], the IC50 was 1.8 ± 0.102 mM. The “SI (CC50/IC50)” value in data set [3] is given as 1. In “in vitro”, this compound came in with a CC50 of 1.8 ± 0.071 mM.

In data set [1], `COc1ccc(C=CC(=O)O)cc1OC` [3,4-Dimethoxycinnamic acid] registered a 50% inhibitory concentration (IC50) of 5 ± 0.233 mM. The “SI (CC50/IC50)” value in data set [3] worked out at 2. Moreover, in “in vitro”, the CC50 came out at 10 ± 0.62 mM.

For the compound `C=CCc1ccc(OC)cc1` [4-Allylanisole], in data set [1], half-maximal inhibition (IC50) required 8.4 ± 0.65 mM. This compound also registered a CC50 in “in vitro” of 8 ± 0.563 mM.

In the case of `COc1cc(C=CC=O)ccc1O` [4-Hydroxy-3-methoxy cinnamaldehyde], the midpoint of inhibition in data set [1], the IC50, lay at 0.3 ± 0.013 mM. In data set [3], the “SI (CC50/IC50)” value turned out to be 2.3. The same compound came in with a CC50 in the data set “in vitro” of 0.7 ± 0.043 mM.

In data set [1], `COc1cc(C=CC(=O)O)ccc1O` [4-Hydroxy-3-methoxycinnamic acid] came in with a 50% inhibitory concentration (IC50) of 5 ± 0.312 mM. Besides, the “SI (CC50/IC50)” value in data set [3] is 2. In the data set “in vitro”, this compound yielded a CC50 of 10 ± 0.555 mM.

The compound `O=c1cc(O)c2ccccc2o1` [4-Hydroxycoumarin] came in with an IC50 in data set [1] of 10.3 ± 0.5 mM. Further, in data set [3], the “SI (CC50/IC50)” value was 1. Also, in “in vitro”, the CC50 was determined as 10.3 ± 0.66 mM.

For `O=c1ccc2ccc(O)cc2o1` [7-Hydroxycoumarin], 2.5 ± 0.172 mM corresponded to half-maximal inhibition in data set [1] (IC50). In data set [3], the “SI (CC50/IC50)” value was determined as 4.3. The same compound had a CC50 in the data set “in vitro” of 10.7 ± 0.56 mM.

As for `Oc1cc(O)c2c(c1)O[C@@]1(c3ccc(O)c(O)c3)Oc3cc(O)c4c(c3[C@@H]2[C@H]1O)O[C@H](c1ccc(O)c(O)c1)[C@H](O)[C@H]4c1c(O)cc(O)c2c1O[C@H](c1ccc(O)c(O)c1)[C@H](O)C2` [Cinnamtannin B1], inhibition in data set [1] was half-maximal at 0.0329 ± 0.0028 mM (IC50). For the same compound, the “Effect on TfR expression” value in the data set with TfR is “up-regulated”. In addition, the “ACE2 expression versus untreated control (positive percentages and MFI)” value in the data set on ACE2 was “no significant difference”. Besides, the “IC50 with virus pretreated (1 h) compared with drug added simultaneously (0 h)” value in data set [2] was “not different”. The compound also displayed a CC50 in the data set “in vitro” of 0.242 ± 0.0148 mM.

As to `CC(=O)OC/C=C/c1ccccc1` [Cinnamylacetate], in data set [3], half-maximal inhibition (IC50) required 7.1 ± 0.35 mM and the “SI (CC50/IC50)” value is listed as 1. Moreover, the CC50 in the data set with HepG2 cells amounted to 7.1 ± 0.42 mM.

Compound `CCOC(=O)/C=C/c1ccccc1` [Ethylcinnamate] displayed an IC50 in data set [1] of 7.1 ± 0.532 mM. Besides, the “SI (CC50/IC50)” value in data set [3] turned out to be 2.0. This compound also displayed a CC50 in “in vitro” of 14.1 ± 1.22 mM.

On to `C=CC(C)(C)c1cc(/C=C/C(=O)c2ccc(O)cc2)c(OC)cc1O` [Licochalcone-A], for which, in data set [3], the IC50 was 0.03 ± 0.003 mM and the “SI (CC50/IC50)” value was determined as 1. The compound also returned a CC50 in the data set on HepG2 cells of 0.03 ± 0.001 mM.

In the case of `Oc1cc(O)c2c(c1)O[C@H](c1ccc(O)c(O)c1)[C@H](O)[C@H]2c1c(O)cc(O)c2c1O[C@H](c1ccc(O)c(O)c1)[C@@H](O)C2` [Procyanidin B1], the IC50 in data set [1] stood at 0.161 ± 0.0203 mM. In the data set on CD59, the “Effect on CD59 expression” value is recorded as “did not affect”. Also, the “Effect on TfR expression” value with TfR was “did not affect”. For the same compound, the “ACE2 expression versus untreated control (positive percentages and MFI)” value in the data set on ACE2 is on record as “no significant difference”. Besides, in data set [2], the “IC50 with virus pretreated (1 h) compared with drug added simultaneously (0 h)” value is “not different”. The compound also returned a CC50 in “in vitro” of 0.656 ± 0.0367 mM.

Consider `O=C/C=C/c1ccccc1` [Trans-cinnamaldehyde], for which, in data set [1], it took 0.2 ± 0.016 mM to reach half-maximal inhibition (IC50). For the same compound, the “SI (CC50/IC50)” value in data set [3] was 1. In addition, the CC50 in the data set “in vitro” amounted to 0.2 ± 0.014 mM.

`O=C(O)/C=C/c1ccccc1` [Trans-cinnamic acid] returned an IC50 in data set [3] of 3 ± 0.178 mM. In addition, the “Anti-SARS-CoV activity” value in data set [2] is “did not show any anti-SARS-CoV activities”. Also, the CC50 in the data set with HepG2 cells worked out at 22.4 ± 1.23 mM.

The compound `Cc1ccc(C(C)C)cc1` [p-Cymene] displayed an IC50 in data set [1] of 75 ± 5.55 mM. Besides, in data set [3], the “SI (CC50/IC50)” value was determined as 1. Further, the CC50 in the data set “in vitro” was found to be 75 ± 4.35 mM.

For `Oc1cc(O)c2c(c1)O[C@H](c1ccc(O)c(O)c1)[C@H](O)[C@H]2c1c(O)cc(O)c2c1O[C@H](c1ccc(O)c(O)c1)[C@H](O)C2` [procyanidins B2, procyanidin B2], the “Effect on TfR expression” value in the data set with TfR is on record as “nor up-regulate”. For the same compound, the “Anti-SARS-CoV activity” value in data set [2] is given as “did not inhibit”.

In turn, Isoeugenol registered an IC50 in data set [3] of 2 ± 0.142 mM.

The values above are taken from publication PMC7114128 (Antiviral Research, 2009).
